The target of the experiment is T1, 14-3-3γ/ERRγ complex (Homo sapiens, UniProt P61981+P62508).
T1 construct: made in house; host or cells: E. coli NiCo21 (DE3)
The experiment can be described thus: Differential scanning fluorimetry (DSF). Conditions: 5 μM 14-3-3γ, 200 μM compound, relative to DMSO; for ΔTm at 200 µM: read-out: increase in 14-3-3γ melting temperature (ΔTm). Type of experiment: binding. How it is done:
We screened the apo-14-3-3γ, the binary 14-3-3γ/ERRγ (10 eq.) complex, and the ternary complex of 14-3-3γ, the ERRγ phosphopeptide, and compounds 1 and 3–10 (Figure 2c and Figures S4 and S5). The DSF data corroborated the enhanced stabilization observed in the FA data, with molecular locks 5 and 10 eliciting 14-3-3γ melting temperature increases of 4.7 ± 0.2 and 6.0 ± 0.3 °C, respectively (Figure 2c).
Figure S4. Differential Scanning Fluorimetry. Raw melting curves (a-c, g-i) and derivatives of these melting curves (d-f, j-l) of 14-3-3γ (5 µM) with ERRγ (25 µM) incubated with either DMSO (black) or 200 µM compound 1-10.
(1 picture or pasted object on this page, not shown here)
Figure S5. Differential Scanning Fluorimetry. Raw melting curves (a-c) and derivatives of these melting curves (d-f) of 14-3-3γ (5 µM) with ERRγ (25 µM) incubated with either DMSO (black) or 200 µM compound 1-10. (g) […]
Differential Scanning Fluorimetry (DSF)
Different Scanning Fluorimetry (DSF) assays were performed using 40 µL samples containing 5 µM 14-3-3γ, 50 µM ERRγ pS179 9-mer peptide, 200 µM compound (or 1% DMSO) and 5x ProteoOrange (Lumiprobe, 5000x stock in DMSO) in 10 mM Hepes, 150 mM NaCl, 50 µM TCEP (pH 8.0). The samples were heated from 35 °C to 79 °C at a rate of 0.3 °C per 15 s in a CFX96 Touch Real-Time PCR Detection System (Bio-Rad). Fluorescence intensity was determined using excitation 470/40 nm and emission 570/20 nm filters. Based on these melting curves, the negative derivative melting curve is obtained from which the melting temperature Tm was determined. ΔTm values represent the differences in melting temperature relative to the DMSO control. All described melting temperatures are based on three independent experiments from which the average and standard deviations were determined using excel. […]
Washing steps were repeated three more times. […] Fluorescence was measured using the Tecan SPARK plate reader at room temperature with an excitation wavelength of 485 nm and an emission wavelength of 535 nm. Furthermore, fluorescence anisotropy of each sample was measured using the Tecan Infinite F500 plate reader at room temperature (lex: 485 ± 20 nm; lem: 535 ± 25 nm; mirror: Dichroic 510; flashes: 20; integration time: 50 ms; settle time: 0 ms; gain: 50; and Z-position: calculated from well) to determine whether all 14 -3-3γ was captured by the magnetic beads (should results in low anisotropy values in samp les after capturing in comparison to samples […]
A general note: Differential scanning fluorimetry follows unfolding on heating by fluorescence.

In general, ΔTm refers to the shift of the melting midpoint relative to a reference.

T1 sequence (P61981 whole entry, other chains not shown): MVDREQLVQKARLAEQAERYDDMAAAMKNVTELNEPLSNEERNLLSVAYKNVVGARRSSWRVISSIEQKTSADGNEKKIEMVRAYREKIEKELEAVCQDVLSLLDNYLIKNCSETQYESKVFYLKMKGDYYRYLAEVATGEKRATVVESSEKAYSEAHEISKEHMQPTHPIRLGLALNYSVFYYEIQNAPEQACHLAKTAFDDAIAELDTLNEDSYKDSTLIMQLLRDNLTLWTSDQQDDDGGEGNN

For `CN(C)CCSSCCN(C)C(=O)c1cccc(F)c1` [compound 1, reference compound], for the setting “ERRγ”, the “decrease in melting temperature” value turned out to be 2.6 °C. Turning to `CN(C)CCNC(=O)c1ccc(C=O)c(F)c1` [compound 3], the “increase in 14-3-3γ melting temperature (ΔTm)” value (ERRγ 10 eq.) is listed as “no significant change”. In the case of `CN(C)CCSSCCN(C)C(=O)c1ccc(C=O)c(F)c1` [compound 5], for the setting “ERRγ 10 eq.”, the ΔTm at 200 µM stood at 4.7 ± 0.2 °C. Take `CN(C)CCSSCCN(C)C(=O)c1cc(Br)cc(C=O)c1` [compound 10]: under “ERRγ 10 eq.”, the ΔTm at 200 µM worked out at 6 ± 0.3 °C.

Values taken from publication PMC10064330, “Reversible Dual-Covalent Molecular Locking of the 14-3-3/ERRγ Protein–Protein Interaction as a Molecular Glue Drug Discovery Approach” (Journal of the American Chemical Society, 2023).
